Laboratory results taken from the supplement of paper PMC10307832.

Key:
Assay in all cases: relative viability (nuclei count vs DMSO), 5 days (fraction); higher = more cells survive
ABC-1 = tested on: ABC-1
How it was run: (§1)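 Relative viability equals treated-well nuclei counts divided by vehicle-well nuclei counts. Counts came from 4× images of lung cancer cell lines grown in 1536-well plates for 5 days after pin-tool dosing on the day after seeding. Dosing used one drug alone or a fixed anchor-drug dose plus five library-drug doses (not always all listed) in √10 steps, and values are medians of duplicate plates.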

COR-L23 = tested on: COR-L23
How it was run: as §1

ChaGo-K-1 = tested on: ChaGo-K-1
How it was run: as §1

EMC-BAC-2 = tested on: EMC-BAC-2
How it was run: as §1

HARA = tested on: HARA
How it was run: as §1

HCC-15 = tested on: HCC-15
How it was run: as §1

HCC-366 = tested on: HCC-366
How it was run: as §1

HCC-78 = tested on: HCC-78
How it was run: as §1

HOP-62 = tested on: HOP-62
How it was run: as §1

LC-2-ad = tested on: LC-2-ad
How it was run: as §1

NCI-H1395 = tested on: NCI-H1395
How it was run: as §1

NCI-H1793 = tested on: NCI-H1793
How it was run: as §1

NCI-H1944 = tested on: NCI-H1944
How it was run: as §1

NCI-H1993 = tested on: NCI-H1993
How it was run: as §1

NCI-H2023 = tested on: NCI-H2023
How it was run: as §1

NCI-H2126 = tested on: NCI-H2126
How it was run: as §1

NCI-H2228 = tested on: NCI-H2228
How it was run: as §1

NCI-H23 = tested on: NCI-H23
How it was run: as §1

NCI-H2405 = tested on: NCI-H2405
How it was run: as §1

NCI-H358 = tested on: NCI-H358
How it was run: as §1

NCI-H838 = tested on: NCI-H838
How it was run: as §1

SK-LU-1 = tested on: SK-LU-1
How it was run: as §1

## O=c1cc(-c2cccc3c2Sc2ccccc2S3)oc(N2CCOCC2)c1 + COc1cc2c(Oc3ccc(NC(=O)C4(C(=O)Nc5ccc(F)cc5)CC4)cc3F)ccnc2cc1OCCCN1CCOCC1 [Foretinib] (partner 0.25 µM)
ABC-1; first compound 0.08 µM
  relative viability: 1.25
ABC-1; first compound 0.253 µM
  relative viability: 1.17
ABC-1; first compound 0.8 µM
  relative viability: 1.2
ABC-1; first compound 2.53 µM
  relative viability: 1.04
ABC-1; first compound 8 µM
  relative viability: 1.31
COR-L23; first compound 0.08 µM
  relative viability: 0.946
COR-L23; first compound 0.253 µM
  relative viability: 1.11
COR-L23; first compound 0.8 µM
  relative viability: 1.1
COR-L23; first compound 2.53 µM
  relative viability: 0.971
COR-L23; first compound 8 µM
  relative viability: 1.17
ChaGo-K-1; first compound 0.08 µM
  relative viability: 0.883
ChaGo-K-1; first compound 0.253 µM
  relative viability: 0.98
ChaGo-K-1; first compound 0.8 µM
  relative viability: 1.03
ChaGo-K-1; first compound 2.53 µM
  relative viability: 0.88
ChaGo-K-1; first compound 8 µM
  relative viability: 0.861
EMC-BAC-2; first compound 0.08 µM
  relative viability: 0.998
EMC-BAC-2; first compound 0.253 µM
  relative viability: 0.987
EMC-BAC-2; first compound 0.8 µM
  relative viability: 1
EMC-BAC-2; first compound 2.53 µM
  relative viability: 1.03
EMC-BAC-2; first compound 8 µM
  relative viability: 1.12
HARA; first compound 0.08 µM
  relative viability: 0.934
HARA; first compound 0.253 µM
  relative viability: 0.956
HARA; first compound 0.8 µM
  relative viability: 0.961
HARA; first compound 2.53 µM
  relative viability: 0.898
HARA; first compound 8 µM
  relative viability: 0.777
HCC-15; first compound 0.08 µM
  relative viability: 1.01
HCC-15; first compound 0.253 µM
  relative viability: 1.14
HCC-15; first compound 0.8 µM
  relative viability: 1
HCC-15; first compound 2.53 µM
  relative viability: 1.08
HCC-15; first compound 8 µM
  relative viability: 1.11
HCC-366; first compound 0.08 µM
  relative viability: 0.911
HCC-366; first compound 0.253 µM
  relative viability: 0.89
HCC-366; first compound 0.8 µM
  relative viability: 0.635
HCC-366; first compound 2.53 µM
  relative viability: 0.903
HCC-366; first compound 8 µM
  relative viability: 1.03
HCC-78; first compound 0.08 µM
  relative viability: 0.515
HCC-78; first compound 0.253 µM
  relative viability: 0.561
HCC-78; first compound 0.8 µM
  relative viability: 0.519
HCC-78; first compound 2.53 µM
  relative viability: 0.514
HCC-78; first compound 8 µM
  relative viability: 0.498
HOP-62; first compound 0.08 µM
  relative viability: 1.23
HOP-62; first compound 0.253 µM
  relative viability: 1.27
HOP-62; first compound 0.8 µM
  relative viability: 1.25
HOP-62; first compound 2.53 µM
  relative viability: 1.02
HOP-62; first compound 8 µM
  relative viability: 1.14
LC-2-ad; first compound 0.08 µM
  relative viability: 0.888
LC-2-ad; first compound 0.253 µM
  relative viability: 0.97
LC-2-ad; first compound 0.8 µM
  relative viability: 0.94
LC-2-ad; first compound 2.53 µM
  relative viability: 0.875
LC-2-ad; first compound 8 µM
  relative viability: 0.873
NCI-H1395; first compound 0.08 µM
  relative viability: 0.934
NCI-H1395; first compound 0.253 µM
  relative viability: 0.887
NCI-H1395; first compound 0.8 µM
  relative viability: 1.07
NCI-H1395; first compound 2.53 µM
  relative viability: 0.938
NCI-H1395; first compound 8 µM
  relative viability: 1.09
NCI-H1793; first compound 0.08 µM
  relative viability: 0.681
NCI-H1793; first compound 0.253 µM
  relative viability: 0.826
NCI-H1793; first compound 0.8 µM
  relative viability: 0.562
NCI-H1793; first compound 2.53 µM
  relative viability: 0.595
NCI-H1793; first compound 8 µM
  relative viability: 0.588
NCI-H1944; first compound 0.08 µM
  relative viability: 0.832
NCI-H1944; first compound 0.253 µM
  relative viability: 0.853
NCI-H1944; first compound 0.8 µM
  relative viability: 0.899
NCI-H1944; first compound 2.53 µM
  relative viability: 0.825
NCI-H1944; first compound 8 µM
  relative viability: 0.951
NCI-H1993; first compound 0.08 µM
  relative viability: 0.705
NCI-H1993; first compound 0.253 µM
  relative viability: 0.796
NCI-H1993; first compound 0.8 µM
  relative viability: 0.586
NCI-H1993; first compound 2.53 µM
  relative viability: 0.75
NCI-H1993; first compound 8 µM
  relative viability: 0.68
NCI-H2023; first compound 0.08 µM
  relative viability: 0.688
NCI-H2023; first compound 0.253 µM
  relative viability: 0.889
NCI-H2023; first compound 0.8 µM
  relative viability: 0.965
NCI-H2023; first compound 8 µM
  relative viability: 0.861
NCI-H2126; first compound 0.08 µM
  relative viability: 1.22
NCI-H2126; first compound 0.253 µM
  relative viability: 1.39
NCI-H2126; first compound 0.8 µM
  relative viability: 1.02
NCI-H2126; first compound 2.53 µM
  relative viability: 1.03
NCI-H2126; first compound 8 µM
  relative viability: 0.994
NCI-H2228; first compound 0.08 µM
  relative viability: 0.753
NCI-H2228; first compound 0.253 µM
  relative viability: 0.907
NCI-H2228; first compound 0.8 µM
  relative viability: 0.966
NCI-H2228; first compound 2.53 µM
  relative viability: 0.813
NCI-H2228; first compound 8 µM
  relative viability: 1.11
NCI-H23; first compound 0.08 µM
  relative viability: 0.96
NCI-H23; first compound 0.253 µM
  relative viability: 1.14
NCI-H23; first compound 0.8 µM
  relative viability: 0.906
NCI-H23; first compound 2.53 µM
  relative viability: 0.886
NCI-H23; first compound 8 µM
  relative viability: 0.898
NCI-H2405; first compound 0.08 µM
  relative viability: 0.998
NCI-H2405; first compound 0.253 µM
  relative viability: 1.09
NCI-H2405; first compound 0.8 µM
  relative viability: 0.975
NCI-H2405; first compound 2.53 µM
  relative viability: 0.938
NCI-H2405; first compound 8 µM
  relative viability: 1.04
NCI-H358; first compound 0.08 µM
  relative viability: 0.622
NCI-H358; first compound 0.253 µM
  relative viability: 0.753
NCI-H358; first compound 0.8 µM
  relative viability: 0.635
NCI-H358; first compound 2.53 µM
  relative viability: 0.825
NCI-H358; first compound 8 µM
  relative viability: 0.797
NCI-H838; first compound 0.08 µM
  relative viability: 0.995
NCI-H838; first compound 0.253 µM
  relative viability: 1.25
NCI-H838; first compound 0.8 µM
  relative viability: 0.88
NCI-H838; first compound 2.53 µM
  relative viability: 0.878
NCI-H838; first compound 8 µM
  relative viability: 0.972
SK-LU-1; first compound 0.08 µM
  relative viability: 0.787
SK-LU-1; first compound 0.253 µM
  relative viability: 1.05
SK-LU-1; first compound 0.8 µM
  relative viability: 0.906
SK-LU-1; first compound 2.53 µM
  relative viability: 0.842
SK-LU-1; first compound 8 µM
  relative viability: 0.831
